Source: patent US6479524B1, “Substituted aryl and heteroaryl derivatives, their production and their use as medicines” (Boehringer Ingelheim Pharma KG, priority 1998, dated 2002)

System: human citrated plasma
Assay: aPTT time prolongation (clotting of human citrated plasma, Biomatic B10 coagulometer)
Type: biochemical
Details: effective concentration at which the aPTT time is double compared with the control, 37° C.
Experimental: were investigated for their effect on prolonging the aPTT time as follows:
plasma, from human citrated blood.
Diethylbarbiturate acetate buffer, Behring Werke, Marburg (ORWH 60/61),
Biomatic B10 coagulometer, Desaga, Wiesloch.
The aPTT time was determined using a Biomatic B10 coagulometer made by Messrs. Sarstedt.
The test substance was placed in the test tubes prescribed by the manufacturer with 0.1 ml of human citrated plasma and 0.1 ml of PTT reagent. The mixture was incubated for three minutes at 37° C. The clotting reaction was started by the addition of 0.1 ml of calcium solution. The time is measured using the apparatus from the addition of the calcium solution up to the clotting of the mixture. Mixtures to which 0.1 ml of DBA buffer were added were used as the controls.

| SMILES | aPTT time (ED200 in μM) [µM] |
| --- | --- |
| CCOC(=O)Cc1cc(C#CCNc2ccc(C(=N)N)cc2)c(C)cc1C(=O)N1CCCC1C (racemic) [A, rac-4-{3-[5-ethoxycarbonylmethyl-2-methyl-4-(2-methyl-pyrrolidinocarbonyl)-phenyl]-propargylamino}benzamidine] | 0.23 |
| Cc1cc(C(=O)N2CCCC2C)c(C)cc1C#CCNc1ccc(C(=N)N)cc1 (racemic) [B, rac-4-{3-[2,5-dimethyl-4-(2-methyl-pyrrolidinocarbonyl)-phenyl]-propargylamino}benzamidine] | 0.45 |
| Cc1cc(C(=O)C(C)C)c(C)cc1C#CCNc1ccc(C(=N)N)cc1 [C, 4-[3-(2,5-dimethyl-4-isopropylcarbonyl-phenyl)propargyl-amino]benzamidine] | 0.97 |
| Cc1cc(C(=O)N(C)c2ccccn2)c(C)cc1C#CCNc1ccc(C(=N)N)cc1 [D, 4-{3-[2,5-dimethyl-4-(N-methyl-N-pyridin-2-yl-aminocarbonyl)-phenyl]propargylamino}benzamidine] | 0.23 |
| Cc1cc(C(=O)N(C)c2ccccn2)c(C)cc1CCCNc1ccc(C(=N)N)cc1 [E, 4-{3-[2,5-dimethyl-4-(N-methyl-N-pyridin-2-yl-aminocarbonyl)-phenyl]prop-1-ylamino}benzamidine] | 0.69 |
| Cc1cc(C#CCNc2ccc(C(=N)N)cc2)ccc1C(=O)N1CCCC1 [F, 4-[3-(3-methyl-4-pyrrolidinocarbonyl-phenyl)-propargyl-amino]-benzamidine] | 0.54 |
| CCN(CCC(=O)OC)C(=O)c1cc(C)c(C#CCNc2ccc(C(=N)N)cc2)cc1C [G, 4-{3-[2,5-dimethyl-4-(N-(2-methoxycarbonyl-ethyl)-N-ethyl-carbonylamino)-phenyl]-propargylamino}benzamidine] | 0.29 |
| Cc1cc(NC(=O)N(CC(=O)O)C(C)C)c(C)cc1C#CCNc1ccc(C(=N)N)cc1 [H, 4-{3-[2,5-dimethyl-4-(N-isopropyl-N-hydroxycarbonylmethyl-aminocarbonyl-amino)-phenyl]-propargylamino}-benzamidine] | 0.20 |
| Cc1cc(N(C(=O)CC(=O)O)C(C)C)c(C)cc1C#CCNc1ccc(C(=N)N)cc1 [I, 4-{3-[2,5-dimethyl-4-(N-isopropyl-N-hydroxycarbonylmethyl-carbonyl-amino)-phenyl]-propargylamino}-benzamidine] | 0.45 |
